Test results as given in the SangsterLogP compilation.

Assay: method code SF-AS, from DOI: 10.1002/1520-6017(200012)89:12<1525::aid-jps3>3.0.co;2-t
Conditions: not given
In the case of `CC(=O)NCCCCCN(O)C(=O)CCC(=O)NCCCCCN(O)C(=O)CCC(=O)NCCCCCN(O)C(C)=O`, the logP is reported as 0.1. For `CC(=O)N(O)CCCCCNC(=O)CCC(=O)N(O)CCCCCNC(=O)CCC(=O)N(O)CCCCCNC(=O)c1ccccc1`, the logP was 0.86. Work on `CCC(=O)NCCCCCN(O)C(=O)CCC(=O)NCCCCCN(O)C(=O)CCC(=O)NCCCCCN(O)C(C)=O` yielded a logP of 0.26. Work on `CC(=O)N(O)CCCCCNC(=O)CCC(=O)N(O)CCCCCNC(=O)CCC(=O)N(O)CCCCCNC(=O)CCC(=O)O` yielded a logP of -0.5. With `CCCCC(=O)NCCCCCN(O)C(=O)CCC(=O)NCCCCCN(O)C(=O)CCC(=O)NCCCCCN(O)C(C)=O` the logP was 0.88. In the case of `CC(=O)N(O)CCCCCNC(=O)CCC(=O)N(O)CCCCCNC(=O)CCC(=O)N(O)CCCCCNC(=O)Cc1ccccc1`, the logP is reported as 0.9. In the case of `CCCC(=O)NCCCCCN(O)C(=O)CCC(=O)NCCCCCN(O)C(=O)CCC(=O)NCCCCCN(O)C(C)=O`, the logP is reported as 0.42. With `CC(=O)N(O)CCCCCNC(=O)CCC(=O)N(O)CCCCCNC(=O)CCC(=O)N(O)CCCCCNC=O` the logP was -0.1.

Same assay, conditions: pH 7.4
For `CCCCCC(=O)NCCCCCN(O)C(=O)CCC(=O)NCCCCCN(O)C(=O)CCC(=O)NCCCCCN(O)C(C)=O`, the logD was 1.1. For `CCCCCCCC(=O)NCCCCCN(O)C(=O)CCC(=O)NCCCCCN(O)C(=O)CCC(=O)NCCCCCN(O)C(C)=O`, the logD was 1.09.
